Source: US10028992B2, “Methods of treating muscular dystrophy” (BOARD OF REGENTS OF THE NEVADA SYSTEM OF HIGHER EDUCATION …, priority 2012, dated 2018)

Test system: α7 integrin promoter
Experiment: muscle cell-based assay: α7βgal+/− myoblasts/myotubes, LacZ reporter, β-galactosidase cleavage of FDG
Parameters: species or system mouse
Conditions: Myotubes; for Results in a α7+/− β-galactosidase assay, Myotubes, 0.5 uM: compound at 0.5 uM; for Results in a α7+/− β-galactosidase assay, Myotubes, 1 uM: compound at 1 uM; for Results in a α7+/− β-galactosidase assay, Myotubes, 5 uM: compound at 5 uM; for Results in a α7+/− β-galactosidase assay, Myotubes, 10 uM: compound at 10 uM; for Results in a α7+/− β-galactosidase assay, Myotubes, 20 uM: compound at 20 uM; for Results in a α7+/− β-galactosidase assay, Myotubes, 40 uM: compound at 40 uM
In short: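 Fluorescein generated from FDG by β-galactosidase reports α7 integrin promoter activity in differentiated myoblasts from α7+/− LacZ knock-in pups. Screening hits then went to dose-response, western blotting and a myostatin counterscreen.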

SMILES | Results in a α7+/− β-galactosidase assay, Myotubes, 0.5 uM | Results in a α7+/− β-galactosidase assay, Myotubes, 1 uM | Results in a α7+/− β-galactosidase assay, Myotubes, 5 uM | Results in a α7+/− β-galactosidase assay, Myotubes, 10 uM | Results in a α7+/− β-galactosidase assay, Myotubes, 20 uM | Results in a α7+/− β-galactosidase assay, Myotubes, 40 uM
O=C(NCc1ccccc1)C(c1c(F)cccc1Cl)N(C(=O)c1csnn1)C1CC1 (stereo not drawn) [drawing 430] | 0.2226 | −0.02073 | −0.2107 | −0.07084 | −0.182 | −0.2594
Cc1[nH]c2ccc(F)cc2c1CCN(Cc1ccco1)/C(S)=N/C(C)(C)C [drawing 431] | −0.02866 | −0.1703 | −0.1851 | −0.06955 | −0.543 | −0.807
c1ccc(-c2cc(-c3nc4ccccc4[nH]3)c3ccccc3n2)cc1 [drawing 432] | −0.06598 | −0.05419 | −0.2722 | −0.06437 | −0.3184 | −0.5085
CCC(C)n1nc(O)cc1N (stereo not drawn) [drawing 433] | 0.1351 | −0.05991 | −0.1063 | −0.1016 | −0.1631 | −0.144
Cc1ccc(C(=O)N2CCN(S(=O)(=O)N3CCOCC3)CC2)cc1 [drawing 434] | −0.01141 | −0.169 | 0.007084 | 0.1108 | −0.2209 | 0.1179
Cc1cccc(NC(=O)CN(C)C(=O)c2ccc(-c3ccc(Cl)cc3)o2)c1 [drawing 435] | −0.06415 | −0.0743 | −0.09532 | −0.1682 | −0.3693 | −0.5402
Cc1ccccc1S(=O)(=O)N1C[C@H]2CON(C)[C@H]2C[C@H]1c1cccc(-c2ccccc2)c1 [drawing 436] | 0.01204 | 0.03174 | −0.2012 | −0.2418 | −0.3306 | −0.5892
N#C/C(=C/c1ccc(N2CCOCC2)o1)C(=O)Nc1ccccc1 [drawing 437] | −0.01316 | 0.1058 | −0.1378 | −0.06524 | 0.007978 | −0.03236
CCOc1ccccc1Nc1cc2n(c(=O)n1)CCc1cc(OC)c(OC)cc1-2 [drawing 438] | 0.06921 | 0.1295 | −0.255 | −0.3585 | −0.1938 | −0.1921
CCOc1ccccc1NC(=O)COC(=O)CNS(=O)(=O)c1ccc(C)cc1 [drawing 440] | −0.09293 | 0.0165 | −0.2547 | −0.2483 | −0.1393 | −0.07634
Fc1ccc(-c2ccnc3nc(N4CCN(c5ccccc5)CC4)nn23)cc1 [drawing 441] | 0.1617 | 0.1989 | 0.08445 | 0.3037 | −0.1429 | 0.1756
CCOc1cc2c3c(c1)C(C)=CC(C)(C)N3C(=O)C2=O [drawing 442] | 0.1339 | 0.05498 | −0.2641 | −0.2882 | −0.3067 | −0.3705
COc1ccc2c(c1)/C(=C\c1cccc(/C=C3/C(=O)Nc4ccc(OC)cc43)n1)C(=O)N2 [drawing 443] | −0.1407 | −0.2351 | −0.5201 | −0.5078 | −0.5433 | −0.6161
C/C(=N\NC(=O)c1cc(C)oc1C)c1ccc2ccccc2c1 [drawing 444] | −0.05394 | −0.1247 | 0.2514 | −0.05957 | −0.1231 | −0.2807
O=C1Nc2ccccc2/C1=C\c1cccn1-c1ccc(OC(F)(F)F)cc1 [drawing 445] | 0.0705 | 0.06007 | 0.1996 | −0.05189 | −0.1444 | −0.2888
NS(=O)(=O)c1ccc(NC(=O)CN2CCc3ccccc32)cc1 [drawing 446] | −0.03601 | −0.07498 | 0.1476 | −0.1666 | −0.05843 | −0.06764
CC(=O)C1=C(C)Nc2ncnn2C1c1ccc(C)cc1 (stereo not drawn) [drawing 447] | 0.06012 | −0.01856 | 0.152 | −0.155 | −0.1763 | −0.08699
COc1ccc(OC)c(S(=O)(=O)Nc2c(NC3CCCCC3)c3ccccc3oc2=O)c1 [drawing 448] | 0.01269 | −0.0336 | 0.04486 | −0.2638 | −0.05892 | −0.2063
CC(=O)Nc1ccc(NC(=O)C/C(C)=N/NC(=O)COc2cc(C)c(Br)cc2Br)cc1 [drawing 449] | −0.08286 | −0.1235 | −0.2507 | −0.3124 | −0.1128 | −0.2976
Cc1cccc(Cn2cnc3c(nnn3Cc3ccc(Cl)cc3)c2=O)c1 [drawing 450] | 0.04908 | −0.01328 | −0.09823 | −0.3107 | −0.1707 | −0.1775
CCOc1ccc(Br)cc1S(=O)(=O)Nc1ccc(C(=O)Nc2ccccc2OC)cc1 [drawing 451] | 0.1091 | 0.02499 | −0.02123 | −0.1229 | −0.2419 | −0.2407
O=C(NCc1ccccc1)c1csc(-c2cccnc2)n1 [drawing 452] | −0.05273 | −0.1614 | 0.1395 | 0.1693 | 0.05975 | −0.1073
O=C1C2CCCN2C(=O)N1CCCN1CCN(c2cccc(Br)c2)CC1 (stereo not drawn) [drawing 453] | −0.101 | −0.07437 | −0.1132 | 0.07677 | −0.1243 | 0.1476
C=CCc1c(C)nc(-c2ccccc2)nc1N/N=C(\C)c1ccc(N)cc1 [drawing 454] | −0.04135 | −0.05977 | −0.2067 | 0.05284 | −0.1823 | 0.1021
